Measured values as given in US9249129B2, “Morpholino substituted urea derivatives as mTOR inhibitors” (CELLZOME LIMITED, priority 2010, dated 2016).
pIC50: −log10 of the molar value. Like-named read-outs stand apart in the source and are kept apart here.

Experiments:
PI3Kβ = target: T1, PI3Kβ (Homo sapiens, UniProt P42338); test: kinobeads assay, PI3K beta (dot blot detection); format: binding; settings: Table 4, read-out: Inhibition values (IC50) PI3Kb
T1 construct: endogenous in cells; host or cells: Jurkat cells (ATCC TIB-152) lysate, the only lysate described

PI3K delta (PI3Kd) = target: T2, PI3K delta (PI3Kd) (Homo sapiens, UniProt O00329); test: kinobeads assay, PI3K delta (dot blot detection); format: binding
T2 construct: endogenous in cells; host or cells: Jurkat cells (ATCC TIB-152, clone E6-1), lysate
How it was run: (§1)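 Jurkat cell lysate (5 mg/mL protein) incubated 2 h in the cold with test compound (9-step 1:3 series) and immobilized phenylthiazole/phenylmorpholin-chromen ligand beads. Bead-bound kinases eluted, detected by specific antibody dot blot with infrared readout; IC50 from dose-response curves.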

[1] = tested on: S6RP serine-240/244 phosphorylation in HEK293T/17 cells; test: In vitro phospho-S6 cellular assay (pS6RP S240/244); format: cell-based; settings: Homo sapiens, Table 6, 2 hours, S6RP Ser240/244, read-out: pS6 (phospho-S6 cell assay data, activity level)
How it was run: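 HEK293T/17 cells in DMEM with 2% FCS treated with 8 compound concentrations (0.1% DMSO) for 2 h at 37 °C, then lysed. Phospho-S6RP Ser240/244 or phospho-Akt Ser473 quantified by MesoScale sandwich immunoassay with Sulfo-Tag detection; IC50 from variable-slope sigmoidal fit.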

PI3Kα = target: T3, PI3Kα (Homo sapiens, UniProt P42336); test: kinobeads assay, PI3K alpha (dot blot detection); format: binding; settings: Table 4, read-out: Inhibition values (IC50) PI3Ka
T3 construct: endogenous in cells; host or cells: Jurkat cells (ATCC TIB-152) lysate, the only lysate described

PI3Kγ = target: T4, PI3Kγ (Homo sapiens, UniProt P48736); test: kinobeads assay, PI3K gamma (dot blot detection); format: binding; settings: Table 4, read-out: Inhibition values (IC50) PI3Kg
T4 construct: endogenous in cells; host or cells: Jurkat cells (ATCC TIB-152) lysate, the only lysate described

[2] = target: T5, DNA-dependent protein kinase (DNA-PK) (Homo sapiens, UniProt P78527); test: kinobeads assay, DNA-PK (dot blot detection); format: binding
T5 construct: endogenous in cells; host or cells: Jurkat cells (ATCC TIB-152, clone E6-1), lysate
How it was run: as §1

mTOR = target: T6, mTOR (Homo sapiens, UniProt P42345); test: mTOR kinobeads assay (dot blot detection); format: binding
T6 construct: endogenous in cells; host or cells: Jurkat cells (ATCC TIB-152, clone E6-1), lysate
How it was run: as §1

[3] = Table 4, read-out: Inhibition values (IC50) PI3Kd
[4] = Table 4, read-out: Inhibition values (IC50) DNAPK
[5] = Table 4, read-out: Inhibition values (IC50) mTOR
[6] = Table 2, Jurkat cell lysate, read-out: Inhibition values (IC50) PI3Kd
[7] = Table 2, Jurkat cell lysate, read-out: Inhibition values (IC50) DNAPK
[8] = Table 2, Jurkat cell lysate, read-out: Inhibition values (IC50) mTor

T2 sequence (O00329 whole entry): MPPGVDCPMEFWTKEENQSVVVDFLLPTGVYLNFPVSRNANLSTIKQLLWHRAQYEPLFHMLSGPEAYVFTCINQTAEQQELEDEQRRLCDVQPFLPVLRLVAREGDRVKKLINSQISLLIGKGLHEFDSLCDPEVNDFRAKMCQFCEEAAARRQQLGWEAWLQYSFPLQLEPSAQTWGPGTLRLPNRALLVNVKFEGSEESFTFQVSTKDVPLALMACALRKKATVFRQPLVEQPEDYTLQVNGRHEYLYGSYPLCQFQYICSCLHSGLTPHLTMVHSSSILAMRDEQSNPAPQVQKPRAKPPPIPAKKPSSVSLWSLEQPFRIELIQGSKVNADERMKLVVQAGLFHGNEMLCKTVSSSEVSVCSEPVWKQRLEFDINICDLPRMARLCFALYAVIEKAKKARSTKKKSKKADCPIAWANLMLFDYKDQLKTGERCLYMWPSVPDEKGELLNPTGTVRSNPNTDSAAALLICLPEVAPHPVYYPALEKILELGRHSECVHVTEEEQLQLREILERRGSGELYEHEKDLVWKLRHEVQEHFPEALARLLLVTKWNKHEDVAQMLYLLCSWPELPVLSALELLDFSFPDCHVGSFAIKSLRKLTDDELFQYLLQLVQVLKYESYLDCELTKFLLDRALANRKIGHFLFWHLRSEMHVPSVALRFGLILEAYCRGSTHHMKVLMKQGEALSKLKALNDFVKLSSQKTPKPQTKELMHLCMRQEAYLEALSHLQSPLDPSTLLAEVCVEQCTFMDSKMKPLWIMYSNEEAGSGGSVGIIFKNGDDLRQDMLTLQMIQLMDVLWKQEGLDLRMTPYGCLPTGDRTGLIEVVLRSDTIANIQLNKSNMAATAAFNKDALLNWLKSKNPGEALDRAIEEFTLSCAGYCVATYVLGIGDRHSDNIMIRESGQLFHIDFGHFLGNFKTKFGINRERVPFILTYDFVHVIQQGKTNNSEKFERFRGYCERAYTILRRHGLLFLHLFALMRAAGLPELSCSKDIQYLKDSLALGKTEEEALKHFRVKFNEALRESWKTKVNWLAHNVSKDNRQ
T2 sequence (P27986 whole entry partner): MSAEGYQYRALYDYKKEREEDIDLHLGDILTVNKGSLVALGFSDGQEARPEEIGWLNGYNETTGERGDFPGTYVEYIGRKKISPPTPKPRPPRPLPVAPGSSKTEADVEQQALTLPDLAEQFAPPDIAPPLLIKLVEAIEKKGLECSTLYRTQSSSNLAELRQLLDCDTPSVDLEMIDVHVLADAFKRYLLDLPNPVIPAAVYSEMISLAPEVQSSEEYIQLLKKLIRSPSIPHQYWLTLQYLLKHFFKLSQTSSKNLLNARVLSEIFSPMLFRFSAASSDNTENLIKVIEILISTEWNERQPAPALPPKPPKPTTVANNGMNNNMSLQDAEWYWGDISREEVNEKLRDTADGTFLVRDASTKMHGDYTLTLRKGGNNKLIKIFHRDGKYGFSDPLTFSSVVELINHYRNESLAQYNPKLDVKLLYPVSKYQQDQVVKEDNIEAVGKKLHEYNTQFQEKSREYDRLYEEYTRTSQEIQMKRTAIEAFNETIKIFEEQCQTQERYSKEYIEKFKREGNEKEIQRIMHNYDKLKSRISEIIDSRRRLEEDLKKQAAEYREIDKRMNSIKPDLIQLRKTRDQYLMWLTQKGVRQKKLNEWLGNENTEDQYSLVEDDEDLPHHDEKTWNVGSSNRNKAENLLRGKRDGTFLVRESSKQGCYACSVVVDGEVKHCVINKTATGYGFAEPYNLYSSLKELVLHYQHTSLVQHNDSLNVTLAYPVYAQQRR
T1 sequence (P42338 whole entry): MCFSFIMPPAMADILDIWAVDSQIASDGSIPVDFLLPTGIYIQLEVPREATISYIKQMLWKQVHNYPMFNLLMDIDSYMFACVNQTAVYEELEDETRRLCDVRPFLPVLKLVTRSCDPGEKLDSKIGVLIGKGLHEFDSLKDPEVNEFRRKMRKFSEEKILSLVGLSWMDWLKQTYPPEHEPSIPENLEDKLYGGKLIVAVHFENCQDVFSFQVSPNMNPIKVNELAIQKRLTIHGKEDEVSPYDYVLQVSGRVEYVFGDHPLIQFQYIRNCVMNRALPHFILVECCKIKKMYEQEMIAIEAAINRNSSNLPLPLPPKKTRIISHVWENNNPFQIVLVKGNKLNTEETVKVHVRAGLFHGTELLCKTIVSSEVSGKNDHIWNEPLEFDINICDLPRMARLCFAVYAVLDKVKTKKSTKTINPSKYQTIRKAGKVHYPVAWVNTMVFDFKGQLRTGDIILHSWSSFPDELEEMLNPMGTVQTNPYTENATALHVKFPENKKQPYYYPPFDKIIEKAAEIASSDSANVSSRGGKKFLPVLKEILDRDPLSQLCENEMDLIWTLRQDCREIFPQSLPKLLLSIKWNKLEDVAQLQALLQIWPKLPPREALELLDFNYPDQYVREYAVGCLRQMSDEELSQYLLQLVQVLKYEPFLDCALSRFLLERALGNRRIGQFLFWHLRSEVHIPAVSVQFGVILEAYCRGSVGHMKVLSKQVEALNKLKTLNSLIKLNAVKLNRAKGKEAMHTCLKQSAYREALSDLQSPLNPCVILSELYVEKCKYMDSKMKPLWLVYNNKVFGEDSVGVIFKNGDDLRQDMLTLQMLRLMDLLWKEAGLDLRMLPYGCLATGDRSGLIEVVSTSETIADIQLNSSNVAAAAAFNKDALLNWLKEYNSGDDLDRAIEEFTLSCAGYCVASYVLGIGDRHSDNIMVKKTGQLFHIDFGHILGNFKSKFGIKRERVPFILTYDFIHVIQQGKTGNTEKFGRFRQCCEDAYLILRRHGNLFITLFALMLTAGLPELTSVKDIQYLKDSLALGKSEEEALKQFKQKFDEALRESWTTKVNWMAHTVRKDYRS
T1 sequence (P27986 whole entry partner): as the sequence (P27986 whole entry partner) above
T4 sequence (P48736 whole entry): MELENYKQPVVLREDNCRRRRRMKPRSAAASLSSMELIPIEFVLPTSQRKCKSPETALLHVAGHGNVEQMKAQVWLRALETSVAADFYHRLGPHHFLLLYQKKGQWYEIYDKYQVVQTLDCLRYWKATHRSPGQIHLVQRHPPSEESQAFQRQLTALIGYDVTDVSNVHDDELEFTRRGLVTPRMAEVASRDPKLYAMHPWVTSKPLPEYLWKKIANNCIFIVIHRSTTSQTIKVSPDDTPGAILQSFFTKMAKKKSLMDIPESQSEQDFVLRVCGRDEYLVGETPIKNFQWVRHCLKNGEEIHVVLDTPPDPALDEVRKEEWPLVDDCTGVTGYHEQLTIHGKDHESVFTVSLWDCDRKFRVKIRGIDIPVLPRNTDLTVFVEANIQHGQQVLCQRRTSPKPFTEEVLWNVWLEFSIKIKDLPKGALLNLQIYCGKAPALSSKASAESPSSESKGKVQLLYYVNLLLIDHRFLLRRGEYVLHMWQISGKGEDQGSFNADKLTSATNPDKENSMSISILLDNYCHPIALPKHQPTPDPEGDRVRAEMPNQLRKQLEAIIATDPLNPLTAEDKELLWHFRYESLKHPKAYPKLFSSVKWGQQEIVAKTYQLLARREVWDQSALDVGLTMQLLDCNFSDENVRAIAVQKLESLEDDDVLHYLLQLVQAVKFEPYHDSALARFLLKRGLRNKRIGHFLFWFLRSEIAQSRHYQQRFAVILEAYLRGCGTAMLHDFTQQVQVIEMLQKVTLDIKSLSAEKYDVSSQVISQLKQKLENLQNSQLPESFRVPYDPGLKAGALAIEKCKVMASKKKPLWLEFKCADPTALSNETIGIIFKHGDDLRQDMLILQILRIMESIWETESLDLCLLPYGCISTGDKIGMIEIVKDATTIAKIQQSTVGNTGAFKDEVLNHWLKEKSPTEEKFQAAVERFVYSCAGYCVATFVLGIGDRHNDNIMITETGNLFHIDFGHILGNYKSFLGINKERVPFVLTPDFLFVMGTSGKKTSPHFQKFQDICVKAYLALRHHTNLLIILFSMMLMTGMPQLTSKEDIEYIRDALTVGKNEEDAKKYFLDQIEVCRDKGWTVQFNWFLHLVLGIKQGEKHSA
T3 sequence (P42336 whole entry): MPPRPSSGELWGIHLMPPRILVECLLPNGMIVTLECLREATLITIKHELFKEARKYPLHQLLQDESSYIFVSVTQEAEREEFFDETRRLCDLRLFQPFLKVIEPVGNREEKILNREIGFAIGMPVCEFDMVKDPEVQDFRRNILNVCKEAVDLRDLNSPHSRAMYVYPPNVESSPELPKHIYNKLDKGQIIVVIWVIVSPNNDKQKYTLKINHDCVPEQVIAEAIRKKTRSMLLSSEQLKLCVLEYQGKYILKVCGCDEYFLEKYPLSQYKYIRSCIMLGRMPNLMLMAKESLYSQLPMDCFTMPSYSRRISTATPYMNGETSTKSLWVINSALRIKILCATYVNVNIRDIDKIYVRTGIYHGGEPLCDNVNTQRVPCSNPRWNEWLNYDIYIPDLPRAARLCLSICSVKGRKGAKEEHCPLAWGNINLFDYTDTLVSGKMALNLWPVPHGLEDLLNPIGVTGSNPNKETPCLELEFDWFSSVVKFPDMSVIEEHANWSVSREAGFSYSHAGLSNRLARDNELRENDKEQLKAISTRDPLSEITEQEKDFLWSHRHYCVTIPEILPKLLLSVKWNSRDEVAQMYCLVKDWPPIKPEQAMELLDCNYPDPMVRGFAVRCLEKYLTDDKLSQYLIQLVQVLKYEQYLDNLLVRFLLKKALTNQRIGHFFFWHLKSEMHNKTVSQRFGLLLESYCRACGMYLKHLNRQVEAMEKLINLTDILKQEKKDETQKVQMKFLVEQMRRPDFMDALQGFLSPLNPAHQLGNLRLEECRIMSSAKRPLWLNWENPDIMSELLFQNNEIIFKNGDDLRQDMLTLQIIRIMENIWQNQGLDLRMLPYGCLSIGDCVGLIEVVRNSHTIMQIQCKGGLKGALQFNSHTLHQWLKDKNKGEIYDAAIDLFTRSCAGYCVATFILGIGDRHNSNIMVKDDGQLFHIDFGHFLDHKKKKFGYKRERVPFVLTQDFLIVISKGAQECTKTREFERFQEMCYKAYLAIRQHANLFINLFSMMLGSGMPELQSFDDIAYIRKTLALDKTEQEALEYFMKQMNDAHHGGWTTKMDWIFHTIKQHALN
T3 sequence (P27986 whole entry partner): as the sequence (P27986 whole entry partner) above

Row | SMILES | pIC50 (PI3Kβ) | pIC50 (PI3K delta (PI3Kd); [3]) | pIC50 (PI3Kα) | pIC50 (PI3Kγ) | pIC50 [2, 4] | pIC50 (mTOR; [5]) | pIC50 (PI3K delta (PI3Kd); [6]) | pIC50 [2, 7] | pIC50 (mTOR; [8]) | pIC50 [1]
1 | CCS(=O)(=O)c1ccccc1-c1cc(-c2ccc(NC(=O)NC3CC3)cc2)nc(N2CCOC[C@@H]2C)n1 [Example 87, (S)-1-cyclopropyl-3-(4-(6-(2-(ethylsulfonyl)phenyl)-2-(3-methylmorpholino)pyrimidin-4-yl)phenyl)urea] | ≤ 5.00 | ≤ 5.00 | ≤ 5.00 | ≤ 5.00 | ≤ 5.00 | 6.00 to 7.00 |  |  |  | > 7.00
2 | C[C@H]1COCCN1c1cc(-c2cc(F)ccc2S(C)(=O)=O)nc(-c2ccc(NC(=O)NCCO)cc2F)n1 [Example 72, (S)-1-(3-fluoro-4-(4-(5-fluoro-2-(methylsulfonyl)phenyl)-6-(3-methylmorpholino)pyrimidin-2-yl)phenyl)-3-(2-hydroxyethyl)urea] | ≤ 5.00 | ≤ 5.00 | ≤ 5.00 | ≤ 5.00 | ≤ 5.00 | 6.00 to 7.00 | ≤ 5.00 | ≤ 5.00 | 6.00 to 7.00 | 6.00 to 7.00
3 | C[C@@H](O)CNC(=O)Nc1ccc(-c2cc(-c3cc(F)ccc3S(C)(=O)=O)nc(N3CCOC[C@@H]3C)n2)cc1 [Example 82] | ≤ 5.00 | ≤ 5.00 | ≤ 5.00 | ≤ 5.00 | ≤ 5.00 | 5.00 to 6.00 |  |  |  | > 7.00
4 | COC1CC(NC(=O)Nc2ccc(-c3cc(-c4cc(F)ccc4S(C)(=O)=O)nc(N4CCOC[C@@H]4C)n3)cc2)C1 (stereo partly drawn) [Example 79, (S)-1-(4-(6-(5-fluoro-2-(methylsulfonyl)phenyl)-2-(3-methylmorpholino)pyrimidin-4-yl)phenyl)-3-(3-methoxycyclobutyl)urea] | ≤ 5.00 | ≤ 5.00 | ≤ 5.00 | ≤ 5.00 | ≤ 5.00 | 5.00 to 6.00 |  |  |  | 6.00 to 7.00
5 | C[C@H](O)CNC(=O)Nc1ccc(-c2cc(-c3cc(F)ccc3S(C)(=O)=O)nc(N3CCOC[C@@H]3C)n2)cc1 [Example 83, 1-(4-(6-(5-fluoro-2-(methylsulfonyl)phenyl)-2-((S)-3-methylmorpholino)pyrimidin-4-yl)phenyl)-3-((S)-2-hydroxypropyl)urea] | ≤ 5.00 | ≤ 5.00 | ≤ 5.00 | ≤ 5.00 | ≤ 5.00 | 6.00 to 7.00 |  |  |  | > 7.00
6 | C[C@H]1COCCN1c1cc(-c2cncc(F)c2)nc(-c2ccc(NC(=O)NCCF)cc2F)n1 [Example 67, (S)-1-(3-fluoro-4-(4-(5-fluoropyridin-3-yl)-6-(3-methylmorpholino)pyrimidin-2-yl)phenyl)-3-(2-fluoroethyl)urea] | ≤ 5.00 | ≤ 5.00 | ≤ 5.00 | ≤ 5.00 | ≤ 5.00 | 5.00 to 6.00 | ≤ 5.00 | ≤ 5.00 | 5.00 to 6.00 | 6.00 to 7.00
7 | C[C@H]1COCCN1c1nc(-c2ccc(NC(=O)NC3(CO)CCC3)cc2)cc(-c2cc(F)ccc2S(C)(=O)=O)n1 [Example 75, (S)-1-(4-(6-(5-fluoro-2-(methylsulfonyl)phenyl)-2-(3-methylmorpholino)pyrimidin-4-yl)phenyl)-3-(1-(hydroxymethyl)cyclobutyl)urea] | ≤ 5.00 | ≤ 5.00 | ≤ 5.00 | ≤ 5.00 | ≤ 5.00 | 6.00 to 7.00 |  |  |  | 6.00 to 7.00
8 | C[C@H]1COCCN1c1cc(-c2ccncc2F)nc(-c2ccc(NC(=O)NC3CC3)cc2)n1 [Example 24, (S)-1-cyclopropyl-3-(4-(4-(3-fluoropyridin-4-yl)-6-(3-methylmorpholino)pyrimidin-2-yl)phenyl)urea] | ≤ 5.00 | ≤ 5.00 | ≤ 5.00 | ≤ 5.00 | ≤ 5.00 | 6.00 to 7.00 | ≤ 5.00 | ≤ 5.00 | 6.00 to 7.00 | 6.00 to 7.00
9 | C[C@H]1COCCN1c1nc(-c2ccc(NC(=O)NCCN)cc2)cc(-c2cc(F)ccc2S(C)(=O)=O)n1 [Example 84, (S)-1-(2-aminoethyl)-3-(4-(6-(5-fluoro-2-(methylsulfonyl)phenyl)-2-(3-methylmorpholino)pyrimidin-4-yl)phenyl)urea] | ≤ 5.00 | ≤ 5.00 | ≤ 5.00 | ≤ 5.00 | ≤ 5.00 | 6.00 to 7.00 |  |  |  | 5.00 to 6.00
10 | C[C@H]1COCCN1c1cc(-c2cc(F)ccc2S(C)(=O)=O)nc(-c2ccc(NC(=O)NCCF)cc2F)n1 [Example 68, (S)-1-(3-fluoro-4-(4-(5-fluoro-2-(methylsulfonyl)phenyl)-6-(3-methylmorpholino)pyrimidin-2-yl)phenyl)-3-(2-fluoroethyl)urea] | ≤ 5.00 | ≤ 5.00 | ≤ 5.00 | ≤ 5.00 | ≤ 5.00 | 5.00 to 6.00 | ≤ 5.00 | ≤ 5.00 | 5.00 to 6.00 | 6.00 to 7.00
11 | C[C@H]1COCCN1c1cc(-c2ccncc2)nc(-c2ccc(NC(=O)NC3CC3)cc2)n1 [Example 25, (S)-1-cyclopropyl-3-(4-(4-(3-methylmorpholino)-6-(pyridin-4-yl)pyrimidin-2-yl)phenyl)urea] | ≤ 5.00 | ≤ 5.00 | ≤ 5.00 | ≤ 5.00 | ≤ 5.00 | 6.00 to 7.00 | ≤ 5.00 | ≤ 5.00 | 6.00 to 7.00 | 6.00 to 7.00
12 | C[C@H]1COCCN1c1nc(-c2ccc(NC(=O)NCC(N)=O)cc2)cc(-c2cc(F)ccc2S(C)(=O)=O)n1 [Example 70, (S)-2-(3-(4-(6-(5-fluoro-2-(methylsulfonyl)phenyl)-2-(3-methylmorpholino)pyrimidin-4-yl)phenyl)ureido)acetamide] | ≤ 5.00 | ≤ 5.00 | ≤ 5.00 | ≤ 5.00 | ≤ 5.00 | 5.00 to 6.00 | ≤ 5.00 | ≤ 5.00 | 5.00 to 6.00 | 6.00 to 7.00

Now from value to compound, other results behind:

Row | pIC50 (PI3Kβ) | pIC50 (PI3K delta (PI3Kd); [3]) | pIC50 (PI3Kα) | pIC50 (PI3Kγ) | pIC50 [2, 4] | pIC50 (mTOR; [5]) | pIC50 (PI3K delta (PI3Kd); [6]) | pIC50 [2, 7] | pIC50 (mTOR; [8]) | SMILES | pIC50 [1]
13 | ≤ 5.00 | ≤ 5.00 | ≤ 5.00 | ≤ 5.00 | 5.00 to 6.00 | 6.00 to 7.00 | ≤ 5.00 | 5.00 to 6.00 | 6.00 to 7.00 | CCNC(=O)Nc1ccc(-c2nccc(N3CC4CCC(C3)O4)n2)cc1 [Example 49, 1-(4-(4-(8-oxa-3-azabicyclo[3.2.1]octan-3-yl)pyrimidin-2-yl)phenyl)-3-ethylurea] | 6.00 to 7.00
14 | ≤ 5.00 | ≤ 5.00 | ≤ 5.00 | ≤ 5.00 | 5.00 to 6.00 | 6.00 to 7.00 | ≤ 5.00 | 5.00 to 6.00 | 6.00 to 7.00 | O=C(NCC(F)F)Nc1ccc(-c2nccc(N3CC4CCC(C3)O4)n2)cc1 [Example 51, 1-(4-(4-(8-oxa-3-azabicyclo[3.2.1]octan-3-yl)pyrimidin-2-yl)phenyl)-3-(2,2-difluoroethyl)urea] | 6.00 to 7.00
15 | 5.00 to 6.00 | ≤ 5.00 | ≤ 5.00 | ≤ 5.00 | 5.00 to 6.00 | 6.00 to 7.00 | ≤ 5.00 | 5.00 to 6.00 | 6.00 to 7.00 | O=C(Nc1ccc(-c2nccc(N3CCOCC3)n2)cc1)NC1CC1 [Example 26, 1-cyclopropyl-3-(4-(4-morpholinopyrimidin-2-yl)phenyl)urea] | 6.00 to 7.00
16 | ≤ 5.00 | ≤ 5.00 | ≤ 5.00 | ≤ 5.00 | ≤ 5.00 | 5.00 to 6.00 | ≤ 5.00 | ≤ 5.00 | 5.00 to 6.00 | CCNC(=O)Nc1ccc(-c2ccnc(N3CCOC[C@@H]3C)n2)cc1 [Example 38, (S)-1-ethyl-3-(4-(2-(3-methylmorpholino)pyrimidin-4-yl)phenyl)urea] | 6.00 to 7.00
17 | ≤ 5.00 | ≤ 5.00 | ≤ 5.00 | ≤ 5.00 | 5.00 to 6.00 | > 7.00 | ≤ 5.00 | 5.00 to 6.00 | > 7.00 | O=C(NCCO)Nc1ccc(-c2nccc(N3CC4CCC(C3)O4)n2)cc1 [Example 50, 1-(4-(4-(8-oxa-3-azabicyclo[3.2.1]octan-3-yl)pyrimidin-2-yl)phenyl)-3-(2-hydroxyethyl)urea] | 6.00 to 7.00
18 | ≤ 5.00 | ≤ 5.00 | ≤ 5.00 | ≤ 5.00 | ≤ 5.00 | 5.00 to 6.00 | ≤ 5.00 | ≤ 5.00 | 5.00 to 6.00 | O=C(Nc1ccc(-c2ccnc(N3CC4CCC(C3)O4)n2)cc1)NC1CC1 [Example 57, 1-(4-(2-(8-oxa-3-azabicyclo[3.2.1]octan-3-yl)pyrimidin-4-yl)phenyl)-3-cyclopropylurea] | 6.00 to 7.00
